# Data taken from paper PMC9909315, “SY-707, an ALK/FAK/IGF1R inhibitor, suppresses growth and metastasis of breast cancer cells” (Acta Biochimica et Biophysica Sinica, 2022).
# Key:
# FAK [1] = target: T1, FAK (Homo sapiens, UniProt Q05397); test: HTRF kinase enzyme assay; assay type: biochemical; conditions: ATP at Km
# Description: Homogeneous time-resolved fluorescence (HTRF) assay was performed to analyze kinase enzyme activity and compound potency using HTRF ® KinEASE ^TM-TK kit (Cisbio Bioassays, Shanghai, China). […] The resulted solutions were briefly mixed, centrifuged and incubated for 5 min. Finally, 2.5 μL of 4× ATP/TK peptide (ATP at K m for each kinase) solution was added to the reaction system to initiate the reaction. The enzymatic reaction was carried out for 60-120 min at 23°C, then terminated by addition of 5 μL of detection solution containing TK antibody-cryptate and 5 μL of Streptravidin-XL-665. The mixture was incubated for additional 1 h at 23°C. The fluorescent signals were measured with an EnVision multilabel plate reader (PerkinElmer). IC 50 values of the compounds were calculated using the GraFit software (Version 6.0) and presented as the mean of three independent experiments performed in duplicate.
# ALK = ALK (Homo sapiens, UniProt Q9UM73); test: Enzymatic kinetic analysis at various ATP concentrations; assay type: biochemical
# Description: (§1) SY-707 ( Figure 1A) was originally developed as an ALK inhibitor. […] To evaluate the in vitro enzymatic potency and selectivity of SY-707, a kinase panel screening on 96 kinases was performed to determine the inhibitory activities of SY-707 at a concentration of 1 mM. […] Then, enzymatic kinetic analysis of ALK and FAK was performed to explore the mechanisms of inhibition effect of SY-707. Activities of ALK or FAK were estimated at various concentrations of ATP in the presence or absence of SY-707.
# (§2) (C) ALK enzyme activities were evaluated at various concentrations of ATP (0–50 μM) in the presence of different concentrations of SY-707. (D) FAK enzyme activities were evaluated at various concentrations of ATP (0–333 μM) in the presence of different concentrations of SY-707.
# FAK [2] = target: T1, FAK; test: as above; assay type: biochemical
# Description: as §1, §2
# MCF-7 cells = test: PE Annexin V/7-AAD apoptosis flow cytometry; assay type: cell-based; conditions: MCF-7, 0.01, 0.1 and 1 μM, 24 h
# Description: MCF-7 cells were treated with 0.1% DMSO (control) or with SY-707 solution at indicated concentrations for 24 h at 37°C, then the cells were harvested by centrifugation at 350 g and washed twice with PBS. Cell apoptosis was determined using the PE Annexin V Apoptosis Detection kit (BD Biosciences, San Jose, USA) following the manufacture’s guides. Breifly, cells were resuspended with 100 μL of binding buffer containing Annexin V and 7-AAD. After 15 min of incubation at room temperature in the dark, 400 μL of binding buffer was added to the mixture and the cells were analyzed with a Guava flow cytometer (Millipore). Cell cycle arrest was evaluated by incorporation of propidium (PI; Sigma-Aldrich, St Louis, USA) into the permeablized cells. After being treated with DMSO or compounds for 24 h, cells were harvested, washed twice with cold PBS, fixed with ice-cold 70% ethanol, followed by a secondary staining step with staining buffer (0.25 mg/mL RNase, 0.025 mg/mL PI, in PBS) for 1 h at 37°C. Compound regulation of cell-cycle was analyzed using the Guava flow cytometer. Data were analyzed with FlowJo software.
# [3] = tested on: phosphorylation of FAK at Tyr397; test: Western blot of FAK phosphorylation in MCF-7 cells; assay type: cell-based; conditions: MCF-7, 1 h treatment
# Description: Equal amounts of cell lysates were loaded onto 10% SDS-PAGE gel and separated by electrophoresis. Separated proteins were then electro-transferred onto polyvinylidene fluoride (PVDF) membranes (Millipore, Bedford, USA). After being blocked with Tris-buffered saline containing 0.1% Tween-20 (TBST) and 5% bovine serum albumin (BSA), the membranes were incubated with primary antibodies at room temperature for 2 hours or at 4°C, then washed with TBST, followed by treatment with horseradish peroxidase (HRP)-conjugated goat anti-rabbit IgG secondary antibody at room temperature for another 1 h. The targeted protein bands were visualized using an enhanced chemiluminescence (ECL) plus system (Thermo Fisher Scientific). Primary antibodies against phospho-FAK (3283, 1:1000 dilution), phospho-ERK (4377, 1:2000 dilution), phospho-AKT (4060, 1:2000 dilution), FAK (3285, 1:1000 dilution), AKT (6703, 1:1000 dilution) and β-Actin (5125, 1:10,0000 dilution) were purchased from Cell Signaling Technology (Beverly, USA) and the HRP-conjugated goat anti-rabbit IgG (ZDR-5306, 1:10,000 dilution) was purchased from Jackson (West Grove, USA ).
# Cells were cultured in 6-well plates and treated with the indicated concentrations of SY-707 for 1 h before stimulation with or without 100 ng/mL IGF1 for 10 min. Control cells received the drug vehicle with 0.1% DMSO. […]
# [4] = tested on: phosphorylation of Pyk2 at Tyr402; test: Western blot of Pyk2 phosphorylation in MCF-7 cells; assay type: cell-based; conditions: MCF-7, 1 h treatment
# Description: Equal amounts of cell lysates were loaded onto 10% SDS-PAGE gel and separated by electrophoresis. Separated proteins were then electro-transferred onto polyvinylidene fluoride (PVDF) membranes (Millipore, Bedford, USA). After being blocked with Tris-buffered saline containing 0.1% Tween-20 (TBST) and 5% bovine serum albumin (BSA), the membranes were incubated with primary antibodies at room temperature for 2 hours or at 4°C, then washed with TBST, followed by treatment with horseradish peroxidase (HRP)-conjugated goat anti-rabbit IgG secondary antibody at room temperature for another 1 h. The targeted protein bands were visualized using an enhanced chemiluminescence (ECL) plus system (Thermo Fisher Scientific). […]
# Figure4 Inhibitory effects of SY-707 on the phosphorylation of FAK(A,B) Concentration-dependent inhibition of SY-707 on phosphorylation of FAK in T47D (A) and MCF-7 (B) cells. […] Cell lysates were analyzed by western blot analysis using specific antibodies against p-FAK, p-Pyk2, p-AKT and p-ERK respectively. […] Cell lysates were analyzed by western blot analysis using specific antibodies against p-IGF1R, p-STAT3, p-AKT and p-ERK respectively.
# Tissue distribution = assay type: in vivo; conditions: SD rats, oral 15 mg/kg; except the uterus and spleen
# Description: In addition, SY-707 also had good clearance parameters and oral bioavailability in these two species.
# Supplementary Figure S1. The tissue distribution profile of SY-707 Tissue distribution of SY-707 in SD rats was measured after oral administration of SY-707 (15 mg/kg).
# [5] = tested on: phosphorylation of FAK at Tyr397 in T47D tumor tissue; test: Pharmacokinetics/pharmacodynamics study in T47D xenograft model; assay type: in vivo, nude mice
# Description: Figure5 Anti-tumor activities of SY-707 in breast cancer xenograftsXenograft tumors were established by inoculating T47D (A, B, C) cells or 4T1 (D) cells into the nude mice. Oral administration of SY-707 alone or combined with paclitaxel was initiated when tumors reached an average of approximately 150–300 mm3 in volume and continued through the experiment. Tumor volume was measured on the indicated days with the mean tumor volume±SD indicated for each group (10 mice/group). Each treatment group was compared to vehicle group with t-test. *P<0.05, **P<0.01. (B) The tumor tissues were harvested at 2 h after the last dosage of SY-707, compound levels in tumor tissues or plasma and the phosphorylation levels of FAK were analyzed.
# To explore the relationship between the in vivo anti-tumor growth activities and the inhibition on FAK signaling, pharmacokinetics/pharmacodynamics studies were performed in T47D xenograft model.
# Chain of ALK (Q9UM73 19-1620): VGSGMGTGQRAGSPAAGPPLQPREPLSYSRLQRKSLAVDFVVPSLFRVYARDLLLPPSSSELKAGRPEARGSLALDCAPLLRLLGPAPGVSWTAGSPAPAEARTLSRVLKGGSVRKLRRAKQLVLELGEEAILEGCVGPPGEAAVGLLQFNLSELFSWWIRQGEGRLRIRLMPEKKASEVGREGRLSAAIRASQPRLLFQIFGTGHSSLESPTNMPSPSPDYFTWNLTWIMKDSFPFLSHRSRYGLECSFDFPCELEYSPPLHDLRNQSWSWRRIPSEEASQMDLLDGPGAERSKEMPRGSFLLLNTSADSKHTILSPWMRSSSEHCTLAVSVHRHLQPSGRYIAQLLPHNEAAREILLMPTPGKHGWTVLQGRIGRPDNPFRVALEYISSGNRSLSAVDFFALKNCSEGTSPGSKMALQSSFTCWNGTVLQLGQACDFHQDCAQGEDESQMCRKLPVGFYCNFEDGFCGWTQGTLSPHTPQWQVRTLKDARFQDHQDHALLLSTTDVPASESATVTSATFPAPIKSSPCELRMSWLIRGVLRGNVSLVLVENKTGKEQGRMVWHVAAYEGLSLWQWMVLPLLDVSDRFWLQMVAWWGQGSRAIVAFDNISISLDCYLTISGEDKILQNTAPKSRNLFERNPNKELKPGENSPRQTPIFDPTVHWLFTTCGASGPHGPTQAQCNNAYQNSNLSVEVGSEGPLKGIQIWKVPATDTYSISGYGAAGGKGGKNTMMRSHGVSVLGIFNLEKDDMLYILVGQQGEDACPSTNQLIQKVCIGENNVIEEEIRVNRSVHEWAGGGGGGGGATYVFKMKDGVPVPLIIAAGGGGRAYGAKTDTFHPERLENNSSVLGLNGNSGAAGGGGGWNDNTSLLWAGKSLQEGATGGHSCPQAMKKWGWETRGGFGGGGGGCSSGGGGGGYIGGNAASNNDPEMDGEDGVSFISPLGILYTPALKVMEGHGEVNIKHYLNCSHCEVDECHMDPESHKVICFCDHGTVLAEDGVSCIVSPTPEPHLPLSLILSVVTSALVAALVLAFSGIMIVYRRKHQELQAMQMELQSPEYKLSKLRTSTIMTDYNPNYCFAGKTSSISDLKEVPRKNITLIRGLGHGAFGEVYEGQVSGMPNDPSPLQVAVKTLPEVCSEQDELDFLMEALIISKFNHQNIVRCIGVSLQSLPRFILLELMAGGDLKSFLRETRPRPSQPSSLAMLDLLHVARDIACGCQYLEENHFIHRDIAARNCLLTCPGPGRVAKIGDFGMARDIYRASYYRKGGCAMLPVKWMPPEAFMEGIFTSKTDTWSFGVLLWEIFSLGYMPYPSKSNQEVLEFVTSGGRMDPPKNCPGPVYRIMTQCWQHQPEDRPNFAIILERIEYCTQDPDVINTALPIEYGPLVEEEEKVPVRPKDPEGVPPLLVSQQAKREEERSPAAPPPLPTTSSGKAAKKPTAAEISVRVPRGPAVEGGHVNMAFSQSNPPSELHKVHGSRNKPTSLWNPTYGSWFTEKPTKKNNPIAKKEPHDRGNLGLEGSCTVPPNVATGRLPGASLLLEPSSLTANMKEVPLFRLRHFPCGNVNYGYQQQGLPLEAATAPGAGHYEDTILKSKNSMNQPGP
# T1 sequence (Q05397 whole entry): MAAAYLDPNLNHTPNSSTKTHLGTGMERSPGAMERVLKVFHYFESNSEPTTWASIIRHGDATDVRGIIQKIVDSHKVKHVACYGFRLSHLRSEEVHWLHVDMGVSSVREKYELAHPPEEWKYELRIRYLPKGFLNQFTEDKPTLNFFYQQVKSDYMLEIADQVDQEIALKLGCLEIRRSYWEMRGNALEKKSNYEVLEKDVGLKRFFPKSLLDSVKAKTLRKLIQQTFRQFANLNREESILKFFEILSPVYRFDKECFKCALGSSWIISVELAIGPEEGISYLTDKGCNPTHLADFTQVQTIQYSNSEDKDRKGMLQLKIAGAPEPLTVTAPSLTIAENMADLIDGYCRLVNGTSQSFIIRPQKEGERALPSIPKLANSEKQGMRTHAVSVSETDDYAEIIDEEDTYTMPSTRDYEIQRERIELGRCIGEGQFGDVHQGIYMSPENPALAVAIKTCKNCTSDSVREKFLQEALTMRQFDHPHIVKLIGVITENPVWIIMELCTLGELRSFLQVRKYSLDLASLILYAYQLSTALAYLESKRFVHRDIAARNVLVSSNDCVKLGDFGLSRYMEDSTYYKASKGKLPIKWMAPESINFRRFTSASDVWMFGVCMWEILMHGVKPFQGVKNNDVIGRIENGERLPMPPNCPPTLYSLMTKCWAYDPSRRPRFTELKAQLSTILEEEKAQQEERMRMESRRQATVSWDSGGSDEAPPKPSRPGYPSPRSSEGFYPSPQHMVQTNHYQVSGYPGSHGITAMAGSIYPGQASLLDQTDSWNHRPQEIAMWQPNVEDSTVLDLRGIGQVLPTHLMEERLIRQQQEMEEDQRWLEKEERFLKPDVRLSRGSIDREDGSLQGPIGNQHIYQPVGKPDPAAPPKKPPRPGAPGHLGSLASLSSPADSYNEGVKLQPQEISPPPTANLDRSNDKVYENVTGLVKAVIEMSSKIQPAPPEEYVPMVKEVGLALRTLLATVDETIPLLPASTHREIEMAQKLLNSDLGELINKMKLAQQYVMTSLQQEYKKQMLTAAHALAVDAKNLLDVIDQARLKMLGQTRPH
smiles,measurement,setting,value
"COc1cc(N2CCC(N3CCN(C)CC3)CC2)ccc1Nc1nc2c(c(Nc3ccccc3S(=O)(=O)NC(C)C)n1)CCN2 [SY-707, N-isopropyl-2-((2-((2-methoxy-4-(4-(4-methylpiperazin-1-yl)piperidin-1-yl)phenyl)amino)-6,7-dihydro-5H-pyrrolo[2,3-d]pyrimidin-4-yl)amino)benzenesulfonamide]",IC50,FAK [1],1.6 ± 0.5 nM
same,mode of inhibition of ALK kinase,ALK; Lineweaver-Burk plots,ATP-competitive inhibitor
same,"Ki', ALK enzyme-ATP complex",ALK; enzyme-ATP complex,19.2 nM
same,Ki,"ALK; free enzyme, read-out: dissociation constant (Ki), free ALK enzyme",0.9 nM
same,mode of inhibition of FAK kinase,FAK [2]; double-reciprocal plots,ATP-competitive inhibitory behavior
same,"Ki', FAK enzyme-ATP complex",FAK [2]; enzyme-ATP complex,16.1 nM
same,Ki,"FAK [2]; free enzyme, read-out: dissociation constant (Ki), free FAK enzyme",0.56 nM
same,Late apoptosis,MCF-7 cells,dose-dependently induced
same,phosphorylation of FAK at Tyr397,[3],dose-dependently suppressed
same,phosphorylation of Pyk2 at Tyr402,[4],dose-dependently suppressed
same,distribution in rat tissues (AUC 0–24 h) relative to plasma,Tissue distribution,other organs had lower level of SY-707 than the plasma
same,concentration in tumor samples compared to plasma,[5]; 2 h after last dosage,higher concentrations of SY-707 were also detected in tumor samples
same,phosphorylation level of FAK at Tyr397 in tumor,"[5]; tumor harvested 2 h after last dosage, vs control group",significantly decreased
